What was measured:
FGFR3 (h) = FGFR3 (h) (Homo sapiens, UniProt P22607); experiment: FGFR3 (enzymatic assay), TR-FRET; assay type: biochemical; conditions: read-out: FGFR 3 pIC50 (converted)
Protocol: In a final reaction volume of 30 μL, FGFR3 (h) (40 ng/ml) was incubated with 50 mM HEPES pH 7.5, 6 mM MnCl2, 1 mM DTT, 0.1 mM Na3VO4, 0.01% Triton-X-100, 500 nM Btn-Flt3 and 25 μM ATP in the presence of compound (1% DMSO final). […] Time-Resolved Fluorescence Resonance Energy Transfer (TR-FRET) signal (ex340 nm. Em 620 nm, em 655 nm) was measured afterwards and results are expressed in RFU (Relative Fluorescence Units).

[1] = molecular target: Ba/F3-KDR-transfected cells (Homo sapiens, UniProt P35968); experiment: Ba/F3-KDR (minus IL3) cellular proliferation assay, Alamar Blue; assay type: cell-based; conditions: minus IL3
Sequence of Ba/F3-KDR-transfected cells (P35968 whole entry, change not shown): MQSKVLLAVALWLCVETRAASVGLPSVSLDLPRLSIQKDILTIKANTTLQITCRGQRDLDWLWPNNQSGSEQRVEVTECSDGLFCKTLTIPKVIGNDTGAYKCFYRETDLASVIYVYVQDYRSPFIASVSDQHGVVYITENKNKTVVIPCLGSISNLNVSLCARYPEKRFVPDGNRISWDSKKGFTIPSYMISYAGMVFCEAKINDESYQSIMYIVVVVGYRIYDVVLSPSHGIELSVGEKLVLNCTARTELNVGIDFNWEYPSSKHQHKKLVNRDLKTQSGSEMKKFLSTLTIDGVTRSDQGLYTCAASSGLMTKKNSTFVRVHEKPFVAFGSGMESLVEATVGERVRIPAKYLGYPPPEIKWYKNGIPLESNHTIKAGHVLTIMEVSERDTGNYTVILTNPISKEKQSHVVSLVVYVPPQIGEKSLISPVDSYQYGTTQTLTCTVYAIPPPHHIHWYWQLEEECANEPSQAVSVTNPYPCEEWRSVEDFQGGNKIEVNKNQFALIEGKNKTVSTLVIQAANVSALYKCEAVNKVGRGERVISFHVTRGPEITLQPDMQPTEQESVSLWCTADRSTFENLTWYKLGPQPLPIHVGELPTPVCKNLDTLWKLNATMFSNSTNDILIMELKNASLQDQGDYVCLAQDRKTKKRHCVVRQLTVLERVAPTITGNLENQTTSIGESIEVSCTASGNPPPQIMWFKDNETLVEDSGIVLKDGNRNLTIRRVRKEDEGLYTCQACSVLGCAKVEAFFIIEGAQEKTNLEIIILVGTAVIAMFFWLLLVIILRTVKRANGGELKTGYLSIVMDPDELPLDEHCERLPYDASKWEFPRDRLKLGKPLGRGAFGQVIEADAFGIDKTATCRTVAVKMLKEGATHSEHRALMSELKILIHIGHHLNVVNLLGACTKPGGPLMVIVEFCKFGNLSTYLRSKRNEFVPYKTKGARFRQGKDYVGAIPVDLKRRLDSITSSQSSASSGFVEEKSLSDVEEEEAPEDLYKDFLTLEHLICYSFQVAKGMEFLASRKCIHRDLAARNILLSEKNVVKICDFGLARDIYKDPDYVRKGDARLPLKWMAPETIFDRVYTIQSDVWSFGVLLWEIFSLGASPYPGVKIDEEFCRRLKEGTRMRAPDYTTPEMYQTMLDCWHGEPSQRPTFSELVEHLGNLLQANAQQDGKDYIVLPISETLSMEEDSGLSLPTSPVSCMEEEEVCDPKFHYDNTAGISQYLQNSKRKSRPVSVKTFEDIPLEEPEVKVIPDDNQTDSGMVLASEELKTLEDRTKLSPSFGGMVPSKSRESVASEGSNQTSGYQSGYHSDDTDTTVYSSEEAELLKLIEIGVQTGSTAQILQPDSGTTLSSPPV
Procedure, shortened: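 Compound in DMSO was combined with Ba/F3-KDR-transfected cells in RPMI-1640, 10% FBS, 2 mM L-glutamine. After 24 h incubation at 37 °C, Alamar Blue was added for a further 4 h, then relative fluorescence units were measured.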

[2] = molecular target: T1, Ba/F3-Flt3-transfected cells (Homo sapiens, UniProt P36888, cells depend on it, form not given); experiment: Ba/F3-Flt3 (minus IL3) cellular proliferation assay, Alamar Blue; assay type: cell-based; conditions: minus IL3
T1 sequence (P36888 1-993): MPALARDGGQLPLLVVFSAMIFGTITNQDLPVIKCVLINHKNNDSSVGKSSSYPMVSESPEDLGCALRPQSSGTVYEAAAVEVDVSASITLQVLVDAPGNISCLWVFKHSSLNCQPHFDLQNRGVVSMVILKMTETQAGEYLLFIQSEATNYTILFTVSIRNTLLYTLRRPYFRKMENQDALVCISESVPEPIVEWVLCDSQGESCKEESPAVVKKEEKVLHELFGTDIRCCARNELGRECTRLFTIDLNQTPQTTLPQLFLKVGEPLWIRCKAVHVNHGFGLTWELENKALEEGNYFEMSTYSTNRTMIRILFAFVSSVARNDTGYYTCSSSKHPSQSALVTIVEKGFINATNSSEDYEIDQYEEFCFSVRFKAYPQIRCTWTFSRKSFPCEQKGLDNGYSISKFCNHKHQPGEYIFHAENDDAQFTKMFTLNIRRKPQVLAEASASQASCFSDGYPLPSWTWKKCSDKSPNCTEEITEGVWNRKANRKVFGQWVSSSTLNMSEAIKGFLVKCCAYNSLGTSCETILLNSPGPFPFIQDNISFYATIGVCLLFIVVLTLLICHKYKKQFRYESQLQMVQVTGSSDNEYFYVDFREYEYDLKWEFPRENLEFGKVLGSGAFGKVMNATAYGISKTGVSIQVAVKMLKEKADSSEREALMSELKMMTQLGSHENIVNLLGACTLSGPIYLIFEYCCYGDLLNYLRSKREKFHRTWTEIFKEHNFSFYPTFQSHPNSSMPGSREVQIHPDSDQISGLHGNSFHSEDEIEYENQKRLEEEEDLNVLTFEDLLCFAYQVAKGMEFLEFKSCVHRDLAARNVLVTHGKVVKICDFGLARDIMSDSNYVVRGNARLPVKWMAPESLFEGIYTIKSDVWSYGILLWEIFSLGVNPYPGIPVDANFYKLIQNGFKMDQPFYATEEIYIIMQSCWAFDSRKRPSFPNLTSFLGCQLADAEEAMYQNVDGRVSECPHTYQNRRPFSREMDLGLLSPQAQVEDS

Sequence of FGFR3 (h) (P22607 23-806): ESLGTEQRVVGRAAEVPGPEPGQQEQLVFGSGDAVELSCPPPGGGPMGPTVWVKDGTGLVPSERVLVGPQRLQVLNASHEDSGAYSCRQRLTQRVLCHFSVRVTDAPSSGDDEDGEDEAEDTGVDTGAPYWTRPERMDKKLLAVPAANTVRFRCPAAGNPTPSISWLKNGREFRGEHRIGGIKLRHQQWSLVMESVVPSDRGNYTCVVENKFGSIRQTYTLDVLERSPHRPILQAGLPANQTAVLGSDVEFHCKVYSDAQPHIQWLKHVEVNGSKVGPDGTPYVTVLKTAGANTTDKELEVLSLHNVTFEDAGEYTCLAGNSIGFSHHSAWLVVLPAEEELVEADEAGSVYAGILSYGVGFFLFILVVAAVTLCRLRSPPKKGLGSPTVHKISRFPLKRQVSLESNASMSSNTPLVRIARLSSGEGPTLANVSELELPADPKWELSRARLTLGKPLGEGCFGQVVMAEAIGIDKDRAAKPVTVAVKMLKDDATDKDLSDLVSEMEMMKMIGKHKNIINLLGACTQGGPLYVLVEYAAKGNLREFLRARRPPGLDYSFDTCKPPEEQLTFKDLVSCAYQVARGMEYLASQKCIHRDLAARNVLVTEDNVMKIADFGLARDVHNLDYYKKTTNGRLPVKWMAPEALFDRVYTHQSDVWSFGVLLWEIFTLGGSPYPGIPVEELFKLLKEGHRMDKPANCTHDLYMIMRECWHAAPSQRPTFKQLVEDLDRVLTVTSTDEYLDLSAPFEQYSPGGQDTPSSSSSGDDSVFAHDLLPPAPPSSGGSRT

IC50 (FGFR3 (h)) | BAF3-KDR (MIN IL3) 384 well pIC50 [1] | BAF3-FLT3 (MIN IL3) 96 well pIC50 [2] | BAF3-FLT3 (MIN IL3) 384 well pIC50 [2] | melting point | Compound
3.02 nM | 5.335 | – | <5.025 | 160 °C | COc1cc(OC)cc(N(CCO)c2ccc3ncc(-c4ccc(N)nc4)nc3c2)c1 [Compound 106]
9.77 nM | <5 | – | <5 | 195 °C | COc1cc(OC)cc(N(CCO)c2ccc3ncc(-c4ccc(OC)nc4)nc3c2)c1 [Compound 111]
3.24 nM | 5.19 | – | <5 | 188 °C | CNc1ccc(-c2cnc3ccc(N(CCCO)c4cc(OC)cc(OC)c4)cc3n2)cn1 [Compound 116]
14.5 nM | <5 | – | <5 | 103 °C | COc1cc(OC)cc(N(CCO)c2ccc3ncc(-c4ccnc(C(=O)NCCCN)c4)nc3c2)c1 [Compound 123]
81.3 nM | <5 | – | <5 | 143 °C | COc1cc(OC)cc(N(CCCO)c2ccc3ncc(-c4ccc(N(C)C(=O)OC(C)(C)C)nc4)nc3c2)c1 [Compound 125]
17.8 nM | <5 | – | <5 | 130 °C | COc1cc(OC)cc(N(CCCO)c2ccc3ncc(-c4ccnc(C(=O)NCCCCN)c4)nc3c2)c1 [Compound 126]
33.9 nM | <5 | – | <5 | 213 °C | COc1cc(OC)cc(N(CCCO)c2ccc3ncc(-c4ccnc(NC(=O)OC(C)(C)C)c4)nc3c2)c1 [Compound 128]

The remaining lines, values behind:

Compound | IC50 (FGFR3 (h)) | BAF3-KDR (MIN IL3) 384 well pIC50 [1] | BAF3-FLT3 (MIN IL3) 96 well pIC50 [2] | BAF3-FLT3 (MIN IL3) 384 well pIC50 [2] | melting point
COc1cc(OC)cc(N(CC2CC2)c2ccc3ncc(Nc4nncs4)nc3c2)c1 [Compound 102] | > 1000 nM | <5 | ~5 | <5 | 260 °C
COc1cc(OC)cc(N(CC2CC2)c2ccc3ncc(-c4cccn4C)nc3c2)c1 [Compound 103] | ~1000 nM | <5 | 5.17 | <5 | 141 °C
COc1cc(OC)cc(N(CC2CC2)c2ccc3ncc(-c4ocnc4C)nc3c2)c1 [Compound 104] | 117 nM | <5 | – | <5 | 141 °C
COc1cc(OC)cc(N(CC2CC2)c2ccc3ncc(-n4cnc(CO)c4)nc3c2)c1 [Compound 105] | 13.8 nM | <5 | – | <5 | 154 °C
COc1cc(OC)cc(N(CC2CO2)c2ccc3ncc(-c4ccc(N)nc4)nc3c2)c1 (stereo not shown) [Compound 110] | 21.4 nM | 5.45 | – | 5.04 | 169 °C
CNC(=O)c1cc(-c2cnc3ccc(N(CCNCC(F)(F)F)c4cc(OC)cc(OC)c4)cc3n2)ccn1 [Compound 113] | 33.9 nM | <5 | – | <5 | 98 °C
COc1cc(OC)cc(N(CCO)c2ccc3ncc(-c4ccccc4)nc3c2)c1 [Compound 120] | 3.98 nM | <5 | – | <5 | 124 °C
